Assay results as given in paper PMC9750872, “Ras-mutant cancers are sensitive to small molecule inhibition of V-type ATPases in mice” (Nature biotechnology, 2022).

Tests used:
[1] = test system: SW48 KRASG12D/+ xenografts; assay: SW48 isogenic colon xenograft; assay type: in vivo, mouse; conditions: 10 mg/kg i.p., 14 days of treatment
From the text: (§1) To explore the relationship between individual KRAS mutants and 249C sensitivity in vivo, we used a colon cancer (SW48) xenograft model with a set of colon cancer cell lines which differ in KRAS mutation status but are otherwise genetically matched. Stable derivatives of the SW48 cell line were derived by introducing a KRASG12D, KRASG12V or KRASG13D point mutation via rrAV gene editing technology previously reported. To compare KRAS mutants in a cancer-relevant system, four cell lines: (SW48, SW48 KRASG12D/+, SW48 KRASG12V/+ and SW48 KRASG13D/+) were injected into athymic mice and 14 days of treatment (10 mg/kg 249C or vehicle control, i.p., n = 5 for all arms) was started when the average tumor volume reached approximately 100–200 mm^3 following random segregation into groups. As before, KRASG13D tumors were most sensitive to 249C both in vitro and in vivo (Fig. 6d–e). […] Changes in tumor volume are presented for animals bearing isogenic SW48 cells: parental/KRASWT (Fig. 6f), KRASG12D/+ (Fig. 6g), KRASG12V/+, (Fig. 6h), KRASG13D/+ (Fig. 6i). Note that SW48 tumors with different KRAS variants show different basal growth rates, as reported previously. […] Further, no significant changes in body weight of the mice were observed during the study (Fig. 6j).
(§2) For cell line xenografts, 6 × 10^6 SW48 cells were subcutaneously injected into the flanks of 6–8-week old athymic nude female mice (Taconic model # NCRNU-F, CrTac:NCR-Foxn1 sp/sp) and tumor growth was monitored with caliper measurement. Once the mean tumor reached a certain volume (between 100–200 mm^3), animals were randomized into different treatment groups of 5 animals per group. 249C for in vivo use was formulated in 0.5% Methylcellulose and dosed i.p. (10 mg/kg, for 2 weeks). Antitumor activity was determined by calculating the treatment over control (T/C) tumor volume ratio at the end of the study. Either at the end of each study, of if any animal reached a humane endpoint, animals were euthanized with CO2 followed by cervical dislocation or another secondary method of euthanasia approved by the IACUC protocol. Mouse manipulations were performed in accordance with UCSF’s IACUC protocol AN179973.Mice were housed in the UCSF Animal Care Facility LARC at the Helen Diller Family Cancer Center at UCSF Mission Bay. Mice were housed in a specific-pathogen free individual suite. They are housed up to 5 per cage in ventilator cages, with ad libitum food and water on a 12-hour light cycle and controlled temperature and humidity conditions (67–74°F and 30–70%).

[2] = test system: SW48 KRASG13D/+ xenografts; assay: SW48 isogenic colon xenograft; assay type: in vivo, mouse; conditions: 10 mg/kg i.p., 14 days of treatment
From the text: as §1, §2

[3] = test system: SW48 KRASG12V/+ xenografts; assay: SW48 isogenic colon xenograft; assay type: in vivo, mouse; conditions: 10 mg/kg i.p., 14 days of treatment
From the text: as §1, §2

[4] = test system: SW48 parental (KRAS WT) xenografts; assay: SW48 isogenic colon xenograft; assay type: in vivo, mouse; conditions: 10 mg/kg i.p., 14 days of treatment
From the text: as §1, §2

human primary cells = assay: BioMAP Safety and Toxicology screening profile; assay type: cell-based; conditions: over 100 biomarker readouts
Method: The BioMAP Toxicity Screening Profile was performed as described previously.

MEFs KRAS G12C = assay: Cell proliferation of Ras-less MEFs expressing human KRAS/BRAF; conditions: Mus musculus
Method: (§3) Logarithmically growing cells were plated in antibiotic-free medium supplemented with 2% fetal bovine serum at a density of 5,000 cells per well. The next day, cells were treated in triplicates with increasing doses of in-house small molecule inhibitor drugs and a DMSO vehicle control for 3 days and subsequently assessed for cell viability by measurement of ATP with CellTiter-Glo Luminescent Cell Viability Assay (Promega). Signal intensity was read on a Glomax™ 96 Microplate Luminometer (Promega) with GLOMAX software (version 1.9.3) and percent cell survival was calculated based on the reading of vehicle control cells set as 100% using Excel (2012) and GraphPad Prism (version 6)Each compound was tested a minimum of 2 times with n = 3. All cell proliferation assays (cancer cell lines or MEFs) were done in a similar way.

MEFs KRAS G12S = assay: as above; conditions: Mus musculus
Method: as §3

MEFs KRAS Q61L = assay: as above; conditions: Mus musculus
Method: as §3

MEFs KRAS Q61R = assay: as above; conditions: Mus musculus
Method: as §3

[5] = target: T1, mammalian V-ATPase purified from pig kidneys (Sus scrofa, UniProt Q9TVC1); assay: Biochemical V-ATPase (ATP hydrolysis) assay; conditions: concentrations as low as 1 μM
T1 construct: the entire V-ATPase complex (800 kDa) was purified as described previously from porcine kidneys; from tissue; host or cells: porcine kidney
T1 sequence (Q9TVC1 whole entry): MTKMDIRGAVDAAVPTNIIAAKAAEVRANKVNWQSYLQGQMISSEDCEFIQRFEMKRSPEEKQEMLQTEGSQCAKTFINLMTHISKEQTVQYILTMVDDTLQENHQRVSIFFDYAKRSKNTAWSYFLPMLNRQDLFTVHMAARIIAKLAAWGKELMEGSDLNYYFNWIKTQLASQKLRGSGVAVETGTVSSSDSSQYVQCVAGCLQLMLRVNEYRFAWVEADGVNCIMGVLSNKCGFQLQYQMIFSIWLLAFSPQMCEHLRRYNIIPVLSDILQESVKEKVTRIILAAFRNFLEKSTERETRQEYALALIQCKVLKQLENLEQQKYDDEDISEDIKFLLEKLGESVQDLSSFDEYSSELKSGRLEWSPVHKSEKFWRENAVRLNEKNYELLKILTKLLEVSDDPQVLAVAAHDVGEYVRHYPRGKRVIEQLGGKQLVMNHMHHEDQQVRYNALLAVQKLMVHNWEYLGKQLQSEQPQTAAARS
T1 sequence (Q29048 whole entry partner): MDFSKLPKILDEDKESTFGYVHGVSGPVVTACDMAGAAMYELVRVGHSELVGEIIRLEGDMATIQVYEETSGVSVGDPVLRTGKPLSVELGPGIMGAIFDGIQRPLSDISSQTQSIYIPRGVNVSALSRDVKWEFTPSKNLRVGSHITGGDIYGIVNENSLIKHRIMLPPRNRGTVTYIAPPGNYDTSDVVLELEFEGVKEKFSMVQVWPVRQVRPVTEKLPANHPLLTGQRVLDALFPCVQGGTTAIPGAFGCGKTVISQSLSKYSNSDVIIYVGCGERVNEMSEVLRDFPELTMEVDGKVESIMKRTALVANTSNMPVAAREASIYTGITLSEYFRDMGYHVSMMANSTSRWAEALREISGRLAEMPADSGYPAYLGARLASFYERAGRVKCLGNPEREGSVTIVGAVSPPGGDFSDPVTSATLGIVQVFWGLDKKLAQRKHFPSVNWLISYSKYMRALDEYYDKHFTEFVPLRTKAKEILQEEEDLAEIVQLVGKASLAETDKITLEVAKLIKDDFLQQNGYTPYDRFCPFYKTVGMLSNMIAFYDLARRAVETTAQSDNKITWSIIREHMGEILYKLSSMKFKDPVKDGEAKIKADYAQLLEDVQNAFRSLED
Method: V-ATPase was purified as described previously from yeast[82] using the detergent dodecylmaltoside and porcine kidney[83] using the detergent glycol-diosgenin. ATPase assays with purified V-ATPase were performed as described previously. 249C (mammalian: 0.1, 1, 10, 100 μM and yeast: 5, 10 and 100 μM) or BafA1 (1 μM) were added to the reaction and compared with a negative control to which only DMSO was added. Enzyme-coupled ATPase biochemical activity assays were performed in a 96-well plate as described previously.

CN1CCOC(CNC(=O)C2(C)C(c3ccc(Cl)o3)C(c3ccc(F)cc3F)=NN2c2ccc(F)cc2F)C1 (stereo not shown) [Compound 249C]
Treatment/Control on Day 21 [1]: 75%
Tumor Growth Inhibition (TGI) on Day 21 [1]: 25%
Treatment/Control on Day 21 [2]: 18%
Tumor Growth Inhibition (TGI) on Day 21 [2]: 82%
Treatment/Control on Day 21 [3]: 55%
Tumor Growth Inhibition (TGI) on Day 21 [3]: 45%
Tumor Growth Inhibition (TGI) on Day 21 [4]: 0%
toxicity categories / adverse events in BioMAP safety profiling (human primary cells): no adverse events
IC50 (MEFs KRAS G12C): 440 nM
IC50 (MEFs KRAS G12S): 230 nM
IC50 (MEFs KRAS Q61L): 310 nM
IC50 (MEFs KRAS Q61R): 550 nM
ATP hydrolysis of intact mammalian V-ATPase [5]: blocked ATP hydrolysis
